Target: T1, Human PPARα (Homo sapiens, UniProt Q07869)
T1 construct: host or cells: proprietary non-human mammalian cells
T1 sequence (Q07869 1-468): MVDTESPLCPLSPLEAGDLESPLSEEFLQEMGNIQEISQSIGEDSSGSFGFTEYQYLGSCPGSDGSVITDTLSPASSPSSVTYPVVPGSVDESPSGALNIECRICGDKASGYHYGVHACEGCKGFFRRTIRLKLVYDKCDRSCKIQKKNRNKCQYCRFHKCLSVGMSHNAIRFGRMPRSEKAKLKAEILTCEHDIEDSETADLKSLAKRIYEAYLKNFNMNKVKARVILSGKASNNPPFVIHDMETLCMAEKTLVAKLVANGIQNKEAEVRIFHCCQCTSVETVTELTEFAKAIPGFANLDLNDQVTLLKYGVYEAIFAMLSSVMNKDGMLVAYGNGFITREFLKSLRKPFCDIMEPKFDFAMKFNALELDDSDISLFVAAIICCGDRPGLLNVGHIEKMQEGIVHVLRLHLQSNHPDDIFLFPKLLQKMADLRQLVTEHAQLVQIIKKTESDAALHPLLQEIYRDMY
Test: Human PPARα Reporter Assay (luciferase)
Assay type: cell-based
Conditions: human PPARα reporter cells, overnight incubation, antagonism; read-out: Luciferase IC50
How it was run: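 Agonist or antagonist activity read as luciferase light from engineered reporter cells carrying human PPARα and a responsive reporter gene. Cells got compound immediately on dispensing, incubated overnight, then treatment media swapped for luciferase detection reagent.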

IC50 | SMILES
83 nM | CCn1c(CCCc2ccc(-c3cc(CC(=O)O)cc(OC)c3)cc2)nn(Cc2ccc(C(C)(C)C)cc2)c1=O [Example 194, 2-(3-{4-[3-(1-{[4-(tert-Butyl)phenyl]methyl}-4-ethyl-5-oxo(1,2,4-triazolin-3-yl))propyl]phenyl}-5-methoxyphenyl)acetic acid]
796 nM | CCn1c(CCCc2ccc(-c3cc(CC(=O)O)ccc3F)cc2)nn(Cc2ccc(C(C)(C)C)cc2)c1=O [Example 19, 2-(4′-(3-(1-(4-(tert-Butyl)benzyl)-4-ethyl-5-oxo-4,5-dihydro-1H-1,2,4-triazol-3-yl)propyl)-6-fluoro-[1,1′-biphenyl]-3-yl)acetic acid]
945 nM | CCn1c(CCCc2ccc(-c3cccc(NS(=O)(=O)c4ccc(-c5ccc(OC)cc5)cc4)n3)cc2)nn(Cc2ccc(C(C)(C)C)cc2)c1=O [Example 74, 1-{[4-(tert-Butyl)phenyl]methyl}-4-ethyl-3-(3-{4-[6-({[4-(4-methoxyphenyl)phenyl]sulfonyl}amino)(2-pyridyl)]phenyl}propyl)-1,2,4-triazolin-5-one]
612 nM | CCn1c(CCCc2ccc(-c3cccc(CC(=O)O)c3)cc2)nn(Cc2ccc(C3CC3)cc2)c1=O [Example 22, 2-(4′-(3-(1-(4-Cyclopropylbenzyl)-4-ethyl-5-oxo-4,5-dihydro-1H-1,2,4-triazol-3-yl)propyl)-[1,1′-biphenyl]-3-yl)acetic acid]
640 nM | CCn1c(CCCc2ccc(-c3ccc(OC)c(CNC)c3)cc2)nn(Cc2ccc(C(C)(C)C)cc2)c1=O [Example 180, 1-{[4-(tert-Butyl)phenyl]methyl}-4-ethyl-3-[3-(4-{4-methoxy-3-[(methylamino)methyl]phenyl}phenyl)propyl]-1,2,4-triazolin-5-one]
446 nM | CCn1c(CCCc2ccc(-c3cnc(NS(=O)(=O)c4ccccc4)cn3)cc2)nn(Cc2ccc(C(C)(C)C)cc2)c1=O [Example 118, N-(5-(4-(3-(1-(4-(tert-Butyl)benzyl)-4-ethyl-5-oxo-4,5-dihydro-1H-1,2,4-triazol-3-yl)propyl)phenyl)pyrazin-2-yl)benzenesulfonamide]
898 nM | CCn1c(CCCc2ccc(-c3ccc(CC(=O)O)nc3)cc2)nn(Cc2ccc(C(C)(C)C)cc2)c1=O [Example 43, 2-(5-{4-[3-(1-{[4-(tert-Butyl)phenyl]methyl}-4-ethyl-5-oxo-1,2,4-triazolin-3-yl)propyl]phenyl}-2-pyridyl)acetic acid]
440 nM | CCn1c(CCCc2ccc(-c3ccc(C(=O)C(=O)NC4CC4)cc3)cc2)nn(Cc2ccc(C(C)(C)C)cc2)c1=O [Example 52, 2-(4′-(3-(1-(4-(tert-Butyl)benzyl)-4-ethyl-5-oxo-4,5-dihydro-1H-1,2,4-triazol-3-yl)propyl)-[1,1′-biphenyl]-4-yl)-N-cyclopropyl-2-oxoacetamide]
568 nM | CCn1c(CCCc2ccc(-c3cccc(CC(=O)O)n3)cc2)nn(Cc2ccc(C(C)(C)C)cc2)c1=O [Example 50, 2-(6-{4-[3-(1-{[4-(tert-Butyl)phenyl]methyl}-4-ethyl-5-oxo-1,2,4-triazolin-3-yl)propyl]phenyl}-2-pyridyl) acetic acid]
51 nM | CCn1c(CCCc2ccc(-c3cnc(C4(F)COC4)s3)cc2)nn(Cc2ccc(C(C)(C)C)cc2)c1=O [Example 202, 1-(4-(tert-Butyl)benzyl)-4-ethyl-3-(3-(4-(2-(3-fluorooxetan-3-yl)thiazol-5-yl)phenyl)propyl)-1H-1,2,4-triazol-5(4H)-one]
971 nM | CCn1c(CCCc2ccc(-c3ccc(NS(=O)(=O)c4ccc(C(F)(F)F)cc4)cn3)cc2)nn(Cc2ccc(C(C)(C)C)cc2)c1=O [Example 86, 1-{[4-(tert-Butyl)phenyl]methyl}-4-ethyl-3-(3-{4-[5-({[4-(trifluoromethyl)phenyl]sulfonyl}amino)(2-pyridyl)]phenyl}propyl)-1,2,4-triazolin-5-one]
36 nM | CCn1c(CCCc2ccc(-c3ccc(OC)c(NS(=O)(=O)CC)n3)cc2)nn(Cc2ccc(C(C)(C)C)cc2)c1=O [Example 189, 1-{[4-(tert-Butyl)phenyl]methyl}-4-ethyl-3-[3-(4-{6-[(ethylsulfonyl)amino]-5-methoxy(2-pyridyl)}phenyl)propyl]-1,2,4-triazolin-5-one]
40 nM | CCn1c(CCCc2ccc(-c3cccc(NS(=O)(=O)c4ccccc4)n3)cc2)nn(Cc2ccc(C(C)(C)C)cc2)c1=O [Example 4, N-(6-(4-(3-(1-(4-(tert-Butyl)benzyl)-4-ethyl-5-oxo-4,5-dihydro-1H-1,2,4-triazol-3-yl)propyl)phenyl)pyridin-2-yl)benzenesulfonamide]
417 nM | CCn1c(CCCc2ccc(-c3cccc(CNS(C)(=O)=O)c3)cc2)nn(Cc2ccc(C(C)(C)C)cc2)c1=O [Example 178, 1-{[4-(tert-Butyl)phenyl]methyl}-4-ethyl-3-{3-[4-(3-{[(methylsulfonyl)amino]methyl}phenyl)phenyl]propyl}-1,2,4-triazolin-5-one]
684 nM | CCn1c(CCCc2ccc(-c3ncc(N)cc3C(F)(F)F)cc2)nn(Cc2ccc(C(C)(C)C)cc2)c1=O [Example 156, 3-(3-{4-[5-Amino-3-(trifluoromethyl)(2-pyridyl)]phenyl}propyl)-1-{[4-(tert-butyl)phenyl]methyl}-4-ethyl-1,2,4-triazolin-5-one]
25 nM | CCn1c(CCCc2ccc(-c3ccc(OC)c(CC(=O)O)c3)cc2)nn(Cc2ccc(C(C)(C)C)cc2)c1=O [Example 21, 2-(4′-(3-(1-(4-(tert-Butyl)benzyl)-4-ethyl-5-oxo-4,5-dihydro-1H-1,2,4-triazol-3-yl)propyl)-4-methoxy-[1,1′-biphenyl]-3-yl)acetic acid]
604 nM | CCOc1ccc(-c2ccc(CCCc3nn(Cc4ccc(C(C)(C)C)cc4)c(=O)n3CC)cc2)cc1C1(C#N)CC1 [Example 120, 1-(4′-(3-(1-(4-(tert-Butyl)benzyl)-4-ethyl-5-oxo-4,5-dihydro-1H-1,2,4-triazol-3-yl)propyl)-4-ethoxy-[1,1′-biphenyl]-3-yl)cyclopropanecarbonitrile]
263 nM | CCn1c(CCCc2ccc(-c3ccc(NS(=O)(=O)Cc4ccccc4)cn3)cc2)nn(Cc2ccc(C(C)(C)C)cc2)c1=O [Example 79, 1-{[4-(tert-Butyl)phenyl]methyl}-4-ethyl-3-{3-[4-(5-{[benzylsulfonyl]amino}(2-pyridyl))phenyl]propyl}-1,2,4-triazolin-5-one]
695 nM | CCn1c(CCCc2ccc(-c3cccc(NC(=O)C4CC4)n3)cc2)nn(Cc2ccc(C(C)(C)C)cc2)c1=O [Example 102, N-(6-{4-[3-(1-{[4-(tert-Butyl)phenyl]methyl}-4-ethyl-5-oxo(1,2,4-triazolin-3-yl))propyl]phenyl}(2-pyridyl))cyclopropylcarboxamide]
846 nM | CCn1c(CCCc2ccc(-c3ncc(OC)c(C(=O)O)n3)cc2)nn(Cc2ccc(C(C)(C)C)cc2)c1=O [Example 181, 2-(4-(3-(1-(4-(tert-Butyl)benzyl)-4-ethyl-5-oxo-4,5-dihydro-1H-1,2,4-triazol-3-yl)propyl)phenyl)-5-methoxypyrimidine-4-carboxylic acid]
510 nM | CCn1c(CCCc2ccc(-c3cc(C(=O)O)cc(C(F)(F)F)c3)cc2)nn(Cc2ccc(C(C)(C)C)cc2)c1=O [Example 41, 4′-(3-(1-(4-(tert-Butyl)benzyl)-4-ethyl-5-oxo-4,5-dihydro-1H-1,2,4-triazol-3-yl)propyl)-5-(trifluoromethyl)-[1,1′-biphenyl]-3-carboxylic acid]
272 nM | CCn1c(CCCc2ccc(-c3ccc4c(c3)C(C(=O)O)CO4)cc2)nn(Cc2ccc(C(C)(C)C)cc2)c1=O (racemic) [Example 96, (rac)-5-(4-(3-(1-(4-(tert-Butyl)benzyl)-4-ethyl-5-oxo-4,5-dihydro-1H-1,2,4-triazol-3-yl)propyl)phenyl)-2,3-dihydrobenzofuran-3-carboxylic acid]
562 nM | CCn1c(CCCc2ccc(-c3ccc(OC)c(CC(=O)O)c3)cc2)nn(Cc2ccc(C3(F)COC3)cc2)c1=O [Example 63]
683 nM | CCn1c(CCCc2ccc(-c3cccc(NS(=O)(=O)N(C)C)c3)cc2)nn(Cc2ccc(C(C)(C)C)cc2)c1=O [Example 107, 3-{3-[4-(3-{[(Dimethylamino)sulfonyl]amino}phenyl)phenyl]propyl}-1-{[4-(tert-butyl)phenyl]methyl}-4-ethyl-1,2,4-triazolin-5-one]
116 nM | CCn1c(CCCc2ccc(-c3cccc(CC(=O)O)c3)cc2)nn(Cc2ccc(C(C)(C)C)c(C)c2)c1=O [Example 115, 2-(4′-(3-(1-(3-Methyl-4-(tert-butyl)benzyl)-4-ethyl-5-oxo-4,5-dihydro-1H-1,2,4-triazol-3-yl)propyl)-[1,1′-biphenyl]-3-yl) acetic acid]
37 nM | CCn1c(CCCc2ccc(-c3cccc(NS(=O)(=O)Cc4ccccc4)n3)cc2)nn(Cc2ccc(C(C)(C)C)cc2)c1=O [Example 78, 1-{[4-(tert-Butyl)phenyl]methyl}-4-ethyl-3-{3-[4-(6-{[benzylsulfonyl]amino}(2-pyridyl))phenyl]propyl}-1,2,4-triazolin-5-one]
8 nM | CCn1c(CCCc2ccc(-c3ccc(OC)c(NS(=O)(=O)c4ccc(Cl)nc4)n3)cc2)nn(Cc2ccc(C(C)(C)C)cc2)c1=O [Example 113, 1-{[4-(tert-Butyl)phenyl]methyl}-3-{3-[4-(6-{[(6-chloro(3-pyridyl))sulfonyl]amino}-5-methoxy(2-pyridyl))phenyl]propyl}-4-ethyl-1,2,4-triazolin-5-one]

From patent US9505728B2, “Triazolone compounds and uses thereof” (INCEPTION 2, INC., priority 2012, dated 2016)
